Assay results published in ChEMBL document CHEMBL3507680, “University of Dundee, Gates Library screen for HepG2 cell viability”.

Test: Human HepG2 cell viability assay in 384 well format
Type: toxicity, cell-based
Set-up: dose 125 nL, time 70.5 hour; cytotoxicity at 70.5 h: concentration not given beside the values
Settings: HepG2 cells, read-out: Inhibition

Compound | cytotoxicity at 70.5 h
CCNc1cc2c(nn1)CCN(C(=O)CC1CCCC1)C2 | -5.46%
CN(Cc1cccc(F)c1)C(=O)CN1CCOC(Cn2cncn2)C1 (stereo unspecified) | -0.78%
Cc1nccn1C1CCCN(C(=O)c2cnc[nH]2)C1 (stereo unspecified) | -0.305%
COc1c(C)cnc(CN2CCCC2Cn2nc(C)nc2C)c1C (stereo unspecified) | -3.93%
CCn1cc(NC(=O)NCC(C)N2CCCC2)cn1 (stereo unspecified) | 22.1%
Cc1ccc(-c2nc(CN3CCCC3Cn3cncn3)cs2)o1 (stereo unspecified) | -2.7%
c1csc(-c2nc(CN3CCCCC3Cn3cncn3)cs2)c1 (stereo unspecified) | -14.9%
CNS(=O)(=O)CCCN1CCCC1c1noc(C)n1 (stereo unspecified) | -3.7%
Cc1ccoc1-c1nnc(CN2CCOC(Cn3cccn3)C2)o1 (stereo unspecified) | -2.97%
CCN1CCN(C2CCN(Cc3nc(CCOC)no3)CC2)C1=O | -3.79%
COc1ccc(C(=O)N2CCCC(n3nc(C)nc3C)C2)c(OC)c1 (stereo unspecified) | 21.8%
CS(=O)(=O)CCN1CCCC1c1noc(C2CC2)n1 (stereo unspecified) | 0.883%
Cn1c(NCC(O)c2ccc(Cl)cc2)c(C#N)c(=O)n(C)c1=O (stereo unspecified) | -4.06%
Cn1c(NCC(O)c2ccccc2F)c(C#N)c(=O)n(C)c1=O (stereo unspecified) | -1.35%
CC(NC(=O)NCCCc1n[nH]c(N)c1C#N)c1ccccc1F (stereo unspecified) | 0.683%
CC(NC(=O)NCCCc1n[nH]c(N)c1C#N)c1cccc(Cl)c1 (stereo unspecified) | -4.21%
Cn1c(NCC(O)c2ccc(F)cc2)c(C#N)c(=O)n(C)c1=O (stereo unspecified) | -5.75%
CCN1CCN(C(C)CNC(=O)Nc2cnn(CC)c2)CC1 (stereo unspecified) | -7.65%
CCn1cc(NC(=O)NCC(C)N(C)C)cn1 (stereo unspecified) | 18.2%
CC(C)N(CC(N)=O)Cc1csc(C(C)(C)C)n1 | 3.87%
O=C1CC(N(C(=O)c2ccc(F)c(F)c2)C2CC2)C(=O)N1 (stereo unspecified) | -9.51%
c1cnc(-c2nc(CN3CCCC3Cn3cncn3)cs2)nc1 (stereo unspecified) | -5.35%
O=C1CC(N(C(=O)c2ccc(F)c(C(F)(F)F)c2)C2CC2)C(=O)N1 (stereo unspecified) | 0.0677%
CCN1CCN(C2CCN(Cc3noc(C4CC4)n3)CC2)C1=O | -3.61%

Compound | cytotoxicity at 70.5 h
CC(C)(C)c1n[nH]c(C2CN(Cc3nnc(C4CCC4)o3)CCO2)n1 (stereo unspecified) | -2.38%
Cc1nc(CN2CCCC(NCCOc3cccc(C#N)c3)C2)no1 (stereo unspecified) | -2.71%
Cc1nc(C)n(CC2CCCN(CCOc3ccc(C#N)cc3)C2)n1 (stereo unspecified) | -11.5%
CCc1cnc(CN2CCC(N(Cc3noc(CC)n3)C(C)=O)C2)o1 (stereo unspecified) | -9.22%
CC(NC(=O)NCCn1ccnc1)c1ccc2c(c1)CCC(=O)N2 (stereo unspecified) | 13.7%
Cc1cc(C)n(CC2CN(c3cnc4ccccc4n3)CCO2)n1 (stereo unspecified) | -8.47%
Cc1nc(NC(=O)c2ccc(-n3ncc(C#N)c3N)cc2)sc1C | 17%
Cc1ccnc(NC(=O)c2ccc(-n3ncc(C#N)c3N)cc2)c1 | -6.86%
COc1cccc2cc(CNC(=O)N3CCC(C(N)=O)CC3)oc12 | -8.48%
CC(=O)c1cccc(OCC(=O)NS(=O)(=O)c2ccc(Br)s2)c1 | -2.56%
CC(=O)c1ccc(OCC(=O)NS(=O)(=O)c2ccc(C)s2)cc1 | -14%
O=C1C(NS(=O)(=O)c2ccc(F)cc2F)CCN1Cc1ccccc1 (stereo unspecified) | -7.99%
COCC(C)NC(=O)c1cc(C)n(-c2cccc(OC)c2)c1C (stereo unspecified) | -5.2%
COc1cccc(CC(=O)N2CCCC(n3nc(C)cc3C)C2)c1 (stereo unspecified) | -14.1%
COc1ccc(-c2nnc(CNCCn3cccn3)o2)cc1 | -9.2%
Cc1cc(C)n(C2CCCN(C(=O)Cc3cccc(F)c3)C2)n1 (stereo unspecified) | -9.48%
Cc1nc(CN2CCCC(NCCCOc3ccc(F)cc3)C2)no1 (stereo unspecified) | -8.43%
Cc1ccc(-c2nnc(CNCCn3cccn3)o2)cc1 | 13.9%
COc1ccccc1CC(=O)N1CCCC(n2nc(C)nc2C)C1 (stereo unspecified) | -13%
CCc1nc(CN(C(C)=O)C2CCN(CCc3ccccn3)C2)no1 (stereo unspecified) | -11.5%
Cc1nc(C)n(CC2CCCN2CCOc2cccc(F)c2)n1 (stereo unspecified) | -9.85%
CC(C)c1n[nH]c(C2CN(C(=O)c3cc4c(s3)CCC4)CCO2)n1 (stereo unspecified) | -8.59%
Cc1nc(C)n(CC2CCCCN2CCOc2cccc(C#N)c2)n1 (stereo unspecified) | -7.98%
O=C(c1cnc2c(cnn2C2CCCC2)c1)N1CCN(CCO)CC1 | 2.02%

Compound | cytotoxicity at 70.5 h
Cc1cc(C2CCCN(CCS(=O)(=O)c3ccccc3)C2)n[nH]1 (stereo unspecified) | -8.26%
Cc1ccc(-c2nc(CNCC3CN(C)CCO3)co2)c(C)c1 (stereo unspecified) | 5.24%
Cc1cc(C2CCCN(CCCS(C)(=O)=O)C2)n[nH]1 (stereo unspecified) | -4.49%
Cc1noc(C(C)C)c1C(=O)NCC(c1cccs1)N(C)C (stereo unspecified) | -8.63%
CCN(CC)C(=O)C1CCCN1C(=O)c1cccc(-n2cnnn2)c1 (stereo unspecified) | -4.16%
Cc1ccc(-c2nc(CNCC3CN(C)CCO3)co2)cc1 (stereo unspecified) | -2.95%
Cc1cc(C2CCCN(CCNS(=O)(=O)c3ccccc3)C2)n[nH]1 (stereo unspecified) | 24.5%
O=C(CCCc1ccccc1)N1CCCC(n2cncn2)C1 (stereo unspecified) | -4.48%
Cc1nc(CSCCC(=O)NCc2ccc(-n3cncn3)nc2)cs1 | 24.6%
CNc1nc(CNC(=O)Nc2cccc(F)c2)cs1 | -6.65%
COCCCN1CCCN(C(C)c2nc(C3CC3)no2)CC1 (stereo unspecified) | -4.41%
O=C(CN1CCOC(Cn2cccn2)C1)NCc1cccs1 (stereo unspecified) | -8.73%
Cc1nc(C2CCCN2Cc2nnc(C3CC3)o2)no1 (stereo unspecified) | 0.406%
CS(=O)(=O)N1CCCN(C(=O)c2ccc(Cn3ccccc3=O)o2)CC1 | -7.8%
COc1ccccc1CC(=O)N1CCC(NCc2cccnc2)CC1 | 24%
Cc1nc(C2CCCN2Cc2nc(C)c(C)o2)no1 (stereo unspecified) | -2.71%
Cn1nccc1C1CCN(Cc2csc(-c3ncccn3)n2)CC1 | -5.7%
COCc1ccccc1CNc1nnc(C)c(C)c1C#N | 21.2%
NC(=O)Cc1ccc(NC(=O)C2CCOCC2)cc1 | -3.85%
CSc1ccc(CNC(c2ccccc2)c2nccn2C)cc1 (stereo unspecified) | -1.21%
Cn1ccnc1C(NCc1csc(Br)c1)c1ccccc1 (stereo unspecified) | -1.31%
CC(=O)NCCNC(=O)c1sc(-c2ccc(Cl)s2)nc1C | 28.8%
Cc1ncsc1C(=O)NCCn1nc2ccccn2c1=O | -13.7%
c1cnc(-c2nc(CN3CCC(c4ccn[nH]4)CC3)cs2)nc1 | 0.264%

Compound | cytotoxicity at 70.5 h
CC(=O)N1CCCN(C(=O)c2csc(-c3ccc(C)cc3C)n2)CC1 | -4.64%
O=C(NCc1ccccn1)Nc1cc(C(F)(F)F)c[nH]c1=O | 9.08%
NC(=O)C1CCN(C(=O)c2ccn(-c3ccc(F)cc3)n2)C1 (stereo unspecified) | -1.48%
CC(=O)N1CCN(C(=O)NCc2csc(Br)c2)CC1 | -9.87%
CCOc1cc(C)nc(N2CCN(C(=O)c3ccc[nH]3)CC2)n1 | -7.65%
CC(C)CCOCCNC(=O)Nc1cc(C(F)(F)F)c[nH]c1=O | -2.4%
CCOC(=O)c1sc2ccsc2c1CNC(=O)CC | -3.4%
c1nc2n(n1)CC(NCc1nc(-c3ccsc3)no1)CC2 (stereo unspecified) | -8.53%
Cc1cc(C)n(CC2CCCN2C(=O)c2c[nH]c3ncccc23)n1 (stereo unspecified) | 27.2%
CC(=O)NCCNC(=O)CN1CCN(Cc2nccn2C)C(C)C1 (stereo unspecified) | -2.6%
CCc1nc(CN(C)CC(c2cccs2)N2CCOCC2)no1 (stereo unspecified) | 18.8%
N#Cc1ccnc(N2CCN(C(=O)NC3CCS(=O)(=O)C3)CC2)c1 (stereo unspecified) | -7.36%
Cc1nc(C)c(C(=O)NCCNC(=O)c2ccc(F)cc2F)s1 | -6.45%
CCS(=O)(=O)c1ccccc1N1CCC(NC(C)=O)CC1 | -4.79%
CC(C)c1nc2c(n1C)CCN(Cc1nc(-c3ccsc3)no1)C2 | -9.76%
CC(C)Cc1noc(CN2CCCC(Cn3cncn3)C2)n1 (stereo unspecified) | 3.45%
CC(C)Cc1noc(CN2CCOC(Cn3cncn3)C2)n1 (stereo unspecified) | -5.1%
O=C(CCCNC(=O)C1CC1)Nc1cnn(-c2ccccc2Cl)c1 | -1.38%
Cn1cnc2c1CCN(Cc1nc(-c3ccsc3)no1)C2 | 32.4%
Cc1nc(C2CCCN2CC(=O)N(Cc2ccsc2)C2CC2)no1 (stereo unspecified) | -5.17%
O=C(c1nc(=O)[nH][nH]1)N1CCCC(c2cc(C(F)(F)F)[nH]n2)C1 (stereo unspecified) | 34.5%
Cc1ccc(C(=O)NS(=O)(=O)c2ccccc2C)c(=O)[nH]1 | -4.91%
Cc1cc(C)cc(OCCC(=O)N2CCOCC2c2ncon2)c1 (stereo unspecified) | 5.7%
Cc1cc(CN2CCOC(CN(C)C)C2)no1 (stereo unspecified) | 9.18%

Compound | cytotoxicity at 70.5 h
CCc1nc(CC(=O)N2CCOCC2c2ncon2)cs1 (stereo unspecified) | -3.4%
Fc1ccc(CN2CCCC2Cn2cccn2)c2ncccc12 (stereo unspecified) | -10.6%
Cc1ccc(-c2noc(CN3CCOC(CN(C)C)C3)n2)cc1F (stereo unspecified) | -0.0729%
CN(CC1CCCO1)C1CCN(CCc2ccccn2)CC1 (stereo unspecified) | -6.95%
CC1CN(CC(=O)Nc2nncs2)CCN1c1nccs1 (stereo unspecified) | -9.27%
c1ccc(CCCN2CC(n3cccn3)C2)cc1 | -2.22%
Cc1nn(C)c(C)c1C1CCCN1Cc1nc(-c2ccco2)oc1C (stereo unspecified) | -2.24%
Cc1cc(C)cc(C2(C(=O)N3CCCC(n4cncn4)C3)CC2)c1 (stereo unspecified) | -17.8%
Cc1nc(CN(C)C2CCN(CC(=O)N3CCOCC3)C2)no1 (stereo unspecified) | -12.6%
Cc1nn(C)c(C)c1C1CCCN1Cc1nc(-c2ccco2)no1 (stereo unspecified) | -19.8%
Cc1cnn(CC2CCCN2CCCc2nc3ccccc3o2)c1 (stereo unspecified) | -16.1%
O=C(NCc1ccccn1)NC1CCOc2ccccc21 (stereo unspecified) | 20.6%
O=C(NCc1ccco1)C1CCCN1Cc1nc(-c2ccco2)no1 (stereo unspecified) | -15.9%
CC(C)c1noc(CN2CCN(C(=O)c3ccccc3F)CC2)n1 | -18.6%
CC(C)c1ccc(O)c(C(=O)N2CCN(Cc3cscn3)CC2)c1 | -15.1%
Cc1c[nH]cc1C(=O)N1CCN(Cc2nc(C(C)C)no2)CC1 | -15.1%
Cc1cc(C)cc(NC(=O)CN2CCCC(n3cncn3)C2)c1 (stereo unspecified) | -3.52%
Cc1nnc2n1CCN(Cc1csc(CC(=O)N(C)C)n1)C2 | -13.5%
Cc1nnc2n1CCN(Cc1csc(Cc3ccccc3)n1)C2 | -34.1%
COc1cc(CNCC(O)c2ccc(C)cc2)cc2c1OCCO2 (stereo unspecified) | 4.82%
